The target of test [1] is T1, human histone deacetylase.
T1 construct: The human histone deacetylase was partially purified from human T cell leukemia Jurkat cells
As to the kind of experiment: Test 1: Determination of Histone Deacetylase Inhibitor Activity. The format is biochemical. Particulars: enzyme partially purified from human T cell leukemia Jurkat cells; [3H] acetyl-labeled histones; 25° C., 30 minutes; read-out: Test 1: HDAC inhibitory activity IC50. The method, then: Test 1: Determination of Histone Deacetylase Inhibitor Activity
The partial purification of human histone deacetylase, the preparation of [^3H] acetyl histones, and the assay for histone deacetylase activity were performed basically according to the method as proposed by Yoshida et al. as follows.
Partial Purification of Human Histone Deacetylase
The human histone deacetylase was partially purified from human T cell leukemia Jurkat cells. Jurkat cells (5×10^8 cells) were suspended in 40 mL of the HDA buffer consisting of 15 mM potassium phosphate, pH 7.5, 5% glycerol and 0.2 mM EDTA. After homogenization, nuclei were collected by centrifugation (35,000×g, 10 min) and homogenized in 20 mL of the same buffer supplemented with 1 M (NH4)2SO4. The viscous homogenate was sonicated and clarified by centrifugation (35,000×g, 10 min), and the deacetylase was precipitated by raising the concentration of (NH4)2SO4 to 3.5 M. The precipitated protein was dissolved in 10 mL of the HDA buffer and dialyzed against 4 liters of the same buffer. The dialyzate was then loaded onto a DEAE-cellulose (Whatman DE52) column (25×85 mm) equilibrated with the same buffer and eluted with 300 mL of a linear gradient (0-0.6 M) of NaCl. A single peak of histone deacetylase activity appeared between 0.3 and 0.4 M NaCl.
Preparation of [^3H] Acetyl Histone
To obtain [^3H] acetyl-labeled histone as the substrate for the histone deacetylase assay, 1×10^8 cells of Jurkat in 20 mL of RPMI-1640 medium (supplemented with 10% FBS, penicillin (50 units/mL) and streptomycin (50 μg/mL)) were incubated with 300 MBq [^3H] sodium acetate in the presence of 5 mM sodium butyrate for 30 minutes in 5% CO2-95% air atmosphere at 37° C. in a 75 cm^2 flask, harvested into a centrifuge tube (50 mL), collected by centrifugation at 1000 rpm for 10 minutes, and washed once with phosphate-buffered saline. The washed cells were suspended in 15 mL of ice-cold lysis buffer (10 mM Tris-HCl, 50 mM sodium bisulfite, 1% Triton X-100, 10 mM MgCl2, 8.6% sucrose, pH 6.5). After Dounce homogenization (30 stroke), the nuclei were collected by centrifugation at 1000 rpm for 10 minutes, washed 3 times with 15 mL of the lysis buffer, and once with 15 mL of ice-cooled washing buffer (10 mM Tris-HCl, 13 mM EDTA, pH 7.4) successively. The pellet was suspended in 6 mL of ice-cooled water using a mixer, and 68 μl of H2SO4 was added to the suspension to give a concentration of 0.4 N. After incubation at 4° C. for 1 hour, the suspension was centrifuged for 5 minutes at 15, 000 rpm, and the supernatant was taken and mixed with 60 mL of acetone. After overnight incubation at −20° C., the coagulated material was collected by microcentrifugation, air-dried, and stored at −80° C.
Assay for Histone Deacetylase Activity
For the standard assay, 10 μl of [^3H] acetyl-labeled histones were added to 90 μl of the enzyme fraction, and the mixture was incubated at 25° C. for 30 minutes. The reaction was stopped by addition of 10 μL of HCl. The released [^3H] acetic acid was extracted with 1 mL of ethyl acetate, and 0.9 mL of the solvent layer was taken into 10 mL of toluene scintillation solution for determination of radioactivity.

For test [2], the system named is splenic cells of Lewis rats. Put plainly: Test 2: Determination of T-Cell Growth Inhibitor Activity (T lymphocyte blastogenesis test). As to conditions: Rattus norvegicus, Concanavalin A added, 72 hours, AlamarBlue Assay, read-out: Test 2: T-cell growth inhibitory activity IC50. In kind it is cell-based. The procedure: Test 2: Determination of T-Cell Growth Inhibitor Activity The T lymphocyte blastogenesis test was performed in microtiter plates with each well containing 1.5×10^5 splenic cells of Lewis rats in 0.1 mL RPMI-1640 medium supplemented with 10% fetal bovine serum (FBS), […] 2-mercaptoethanol, penicillin (100 units/mL) and streptomycin (100 μg/mL), to which Concanavalin A (1 μl/mL) was added. The cells were incubated at 37° C. in a humidified atmosphere of 5% CO2 for 72 hours. After the culture period, suppressive activities of the test compounds in T lymphocyte blastogenesis were quantified by AlamarBlue (trademark) Assay. The test samples were dissolved in DMSO and further diluted with RPMI-1640 medium and added to the culture. The activities of the test compounds were expressed as IC50.
(The colour change of resazurin is a common sign of viable cells or microbes.)

One may read the IC50 as the point on the concentration scale where inhibition reaches its midpoint.

Each structure is given as a SMILES string. Counter-ions that a name gives are not always drawn.

With `O=C(/C=C/c1ccc(N[C@@H]2CCN(Cc3ccccc3)C2)nc1)NO` [Example 3, (2E)-3-(6-{[(3R)-1-Benzyl-3-pyrrolidinyl]amino}-3-pyridyl)-N-hydroxyacrylamide dihydrochloride], the IC50 in test [1] was less than 10 nM; in test [2] it was less than 25 nM.
The corresponding values for `O=C(/C=C/c1ccc(N[C@@H]2CCN(CC3CCCCC3)C2)nc1)NO` [Example 60, (2E)-3-(6-{[(3R) 1-(Cyclohexylmethyl)-3-pyrrolidinyl]amino}-3-pyridyl)-N-hydroxyacrylamide dihydrochloride] are less than 10 nM and less than 25 nM.
Regarding `O=C(/C=C/c1cnc(N[C@@H]2CCN(Cc3ccc(Cl)cc3)C2)cn1)NO` [Example 74, (2E)-3-(5-{[(3R)-1-(4-chlorobenzyl)-3-pyrrolidinyl]amino}-2-pyrazinyl)-N-hydroxyacrylamide dihydrochloride], the IC50 in test [1] is less than 10 nM; in test [2], less than 25 nM.
As for `O=C(/C=C/c1cnc(N[C@@H]2CCCN(Cc3ccccc3)C2)cn1)NO` [Example 76, (2E)-3-(5-{[(3R)-1-Benzyl-3-piperidinyl]amino}-2-pyrazinyl)-N-hydroxyacrylamide dihydrochloride], the IC50 was less than 10 nM in test [1] and less than 25 nM in test [2].
For `O=C(/C=C/c1cnc(N[C@@H]2CCN(Cc3ccccc3)C2)cn1)NO` [Example 82, (2E)-3-(5-{[(3R)-1-Benzyl-3-pyrrolidinyl]amino}-2-pyrazinyl)-N-hydroxyacrylamide dihydrochloride], the results for the IC50 in test [1] and in test [2] were less than 10 nM and less than 25 nM, respectively.
As to `O=C(/C=C/c1cnc(N[C@@H]2CCN(Cc3ccc(F)cc3)C2)cn1)NO` [Example 116, (2E)-3-(5-{[(3R)-1-(4-fluorobenzyl)-3-pyrrolidinyl]amino}-2-pyrazinyl)-N-hydroxyacrylamide dihydrochloride], the IC50 is less than 10 nM in test [1] and less than 25 nM in test [2].
Take `O=C(/C=C/c1cnc(N[C@@H]2CCN(CCc3ccccc3)C2)cn1)NO` [Example 119, (2E)-N-hydroxy-3-(5-{[(3R)-1-(2-phenylethyl)-3-pyrrolidinyl]amino}-2-pyrazinyl)acrylamide dihydrochloride]: the IC50 in test [1] is less than 10 nM; in test [2], less than 25 nM.
Take `O=C(/C=C/c1cnc(N[C@@H]2CCN(C3CCCCC3)C2)cn1)NO` [Example 123, (2E)-3-(5-{[(3R)-1-cyclohexyl-3-pyrrolidinyl]amino}-2-pyrazinyl)-N-hydroxyacrylamide dihydrochloride]: the concentration for half-maximal inhibition (IC50) is less than 10 nM in test [1] and less than 25 nM in test [2].
The corresponding values for `O=C(/C=C/c1cnc(N[C@@H]2CCN(C(=O)C3CCCCC3)C2)c(Cl)c1)NO` [Example 174, (2E)-3-(5-chloro-6-{[(3R)-1-(cyclohexylcarbonyl)-3-pyrrolidinyl]amino}-3-pyridinyl)-N-hydroxyacrylamide hydrochloride] are less than 10 nM and less than 25 nM.
Take `CC1=C(CN2CC[C@@H](Nc3ccc(/C=C/C(=O)NO)cn3)C2)C(C)(C)CCC1` [Example 189, (2E)-N-hydroxy-3-[6-({(3R)-1-[(2,6,6-trimethyl-1-cyclohexen-1-yl)methyl]-3-pyrrolidinyl}amino)-3-pyridinyl]acrylamide dihydrochloride]: the values for the IC50 in test [1] and in test [2] were less than 10 nM and less than 25 nM, respectively.

These data come from patent US7557127B2, “HDAC inhibitor” (Astellas Pharma Inc., priority 2004, dated 2009).
